Source: publication PMC9569593, “Measurement of Hepatic CYP3A4 and 2D6 Activity Using Radioiodine-Labeled O-Desmethylvenlafaxine” (International Journal of Molecular Sciences, 2022)
Like-named read-outs stand apart in the source and are kept apart here.

What was measured:
[1] = Procedure: (§1) ^125I-ODV was prepared to a radioactive concentration of 30 MBq/mL by the addition of saline. For metabolite analysis in CYP-inhibited mice, we produced model mice with reduced CYP3A4 or CYP2D6 activity by selective inhibition using ketoconazole or paroxetine. CYP3A4-inhibited mice were injected intraperitoneally with 50 mg/kg of ketoconazole at 60 min before injection of ^125I-ODV, and CYP2D6-inhibited mice were injected intraperitoneally with 30 mg/kg of paroxetine at 60 min before injection of ^125I-ODV. Each of three mice was administered ^125I-ODV via the tail vein (3.0 MBq/100 µL/mouse). At 30 min, the three fasted mice were euthanized under isoflurane, and each gallbladder was collected. The radioactive products in bile were analyzed by TLC using methanol/acetate at a ratio of 100:1. Bile was directly spotted onto a TLC plate.
[2] = up to seven days at 4 °C
Procedure: The stability of ^125I-ODV was analyzed by TLC. The elution of ^125I-ODVwas spotted onto a silica gel TLC plate 60 F254 (Merck, Darmstadt, Germany). The TLC plate and the TLC spots were developed using methanol/acetate at a ratio of 100:1. After development and complete drying, the TLC plates were cut into 21 fractions, and the radiography associated with each fraction was quantified using a γ-ray counter (AccuFLEXγ 7000, Aloka, Tokyo, Japan). The fractional ratios of ^125I^− and ^125I-ODV were calculated by dividing the radioactive counts for each fraction by the total radioactivity count.

CYP3A4 = conditions: CYP3A4-inhibited mice (ketoconazole 50 mg/kg i.p. 60 min before), i.v.
Procedure: as §1
(§2) To examine the biological distribution in CYP-inhibited mice, we produced model mice in the same way as for the analysis of metabolism in bile. At 5, 15, 30, and 60 min after ^125I-ODV injection, mice were euthanized under isoflurane (n = 4), and the same tissues were collected and quantified.

CYP2D6 = conditions: CYP2D6-inhibited mice (paroxetine 30 mg/kg i.p. 60 min before), i.v.
Procedure: as §1, §2

[3] = normal and CYP-inhibited mice, TLC of bile

CN(C)CC(c1ccc(O)c([125I])c1)C1(O)CCCCC1 (centres unmarked) [^125I-ODV, iodine-125-labeled O-desmethylvenlafaxine]
metabolites of 125I-ODV present in bile ([1]; gallbladders collected 60 min after injection): more than 99% | fraction of 125I-ODV in bile [1, 3]: not found | fractional ratio of the metabolite in bile [1, 3]: more than 99% | radiochemical purity [2]: more than 98% | Biological distribution, Blood (CYP3A4; 5 min): 1.91 %ID/g | Biological distribution, Brain (CYP3A4; 5 min): 0.71 %ID/g | Biological distribution, Gallbladder (CYP3A4; 5 min): 2.39 %ID/g | Biological distribution, Heart (CYP3A4; 5 min): 5.73 %ID/g | Biological distribution, Kidney (CYP3A4; 5 min): 21.72 %ID/g | Biological distribution, Large intestines (CYP3A4; 5 min): 1.19 %ID/organ | Biological distribution, Liver (CYP3A4; 5 min): 5.66 %ID/g | Biological distribution, Lung (CYP3A4; 5 min): 29.72 %ID/g | Biological distribution, Pancreas (CYP3A4; 5 min): 8.93 %ID/g | Biological distribution, Small intestines (CYP3A4; 5 min): 6.06 %ID/organ | Biological distribution, Spleen (CYP3A4; 5 min): 6.61 %ID/g | Biological distribution, Stomach (CYP3A4; 5 min): 2.37 %ID/organ | Biological distribution, Thyroid (CYP3A4; 5 min): 0.05 %ID/organ | Biological distribution, Urine (CYP3A4; 5 min): 2.10 %ID/organ | Biological distribution, Blood (CYP3A4; 15 min): 1.71 %ID/g | Biological distribution, Brain (CYP3A4; 15 min): 0.80 %ID/g | Biological distribution, Gallbladder (CYP3A4; 15 min): 5.43 %ID/g | Biological distribution, Heart (CYP3A4; 15 min): 3.93 %ID/g | Biological distribution, Kidney (CYP3A4; 15 min): 19.74 %ID/g | Biological distribution, Large intestines (CYP3A4; 15 min): 1.00 %ID/organ | Biological distribution, Liver (CYP3A4; 15 min): 4.72 %ID/g | Biological distribution, Lung (CYP3A4; 15 min): 21.72 %ID/g | Biological distribution, Pancreas (CYP3A4; 15 min): 5.94 %ID/g | Biological distribution, Small intestines (CYP3A4; 15 min): 6.37 %ID/organ | Biological distribution, Spleen (CYP3A4; 15 min): 6.35 %ID/g | Biological distribution, Stomach (CYP3A4; 15 min): 2.34 %ID/organ | Biological distribution, Thyroid (CYP3A4; 15 min): 0.05 %ID/organ | Biological distribution, Urine (CYP3A4; 15 min): 5.25 %ID/organ | Biological distribution, Blood (CYP3A4; 30 min): 1.44 %ID/g | Biological distribution, Brain (CYP3A4; 30 min): 0.74 %ID/g | Biological distribution, Gallbladder (CYP3A4; 30 min): 9.16 %ID/g | Biological distribution, Heart (CYP3A4; 30 min): 2.34 %ID/g | Biological distribution, Kidney (CYP3A4; 30 min): 15.65 %ID/g | Biological distribution, Large intestines (CYP3A4; 30 min): 1.00 %ID/organ | Biological distribution, Liver (CYP3A4; 30 min): 5.03 %ID/g | Biological distribution, Lung (CYP3A4; 30 min): 11.31 %ID/g | Biological distribution, Pancreas (CYP3A4; 30 min): 23.69 %ID/g | Biological distribution, Small intestines (CYP3A4; 30 min): 7.71 %ID/organ | Biological distribution, Spleen (CYP3A4; 30 min): 4.03 %ID/g | Biological distribution, Stomach (CYP3A4; 30 min): 2.24 %ID/organ | Biological distribution, Thyroid (CYP3A4; 30 min): 0.09 %ID/organ | Biological distribution, Urine (CYP3A4; 30 min): 5.63 %ID/organ | Biological distribution, Blood (CYP3A4; 60 min): 0.65 %ID/g | Biological distribution, Brain (CYP3A4; 60 min): 0.52 %ID/g | Biological distribution, Gallbladder (CYP3A4; 60 min): 20.14 %ID/g | Biological distribution, Heart (CYP3A4; 60 min): 0.96 %ID/g | Biological distribution, Kidney (CYP3A4; 60 min): 9.60 %ID/g | Biological distribution, Large intestines (CYP3A4; 60 min): 0.68 %ID/organ | Biological distribution, Liver (CYP3A4; 60 min): 2.12 %ID/g | Biological distribution, Lung (CYP3A4; 60 min): 5.81 %ID/g | Biological distribution, Pancreas (CYP3A4; 60 min): 2.77 %ID/g | Biological distribution, Small intestines (CYP3A4; 60 min): 10.07 %ID/organ | Biological distribution, Spleen (CYP3A4; 60 min): 1.94 %ID/g | Biological distribution, Stomach (CYP3A4; 60 min): 1.90 %ID/organ | Biological distribution, Thyroid (CYP3A4; 60 min): 0.11 %ID/organ | Biological distribution, Urine (CYP3A4; 60 min): 2.01 %ID/organ | Biological distribution, Blood (CYP2D6; 5 min): 1.83 %ID/g | Biological distribution, Brain (CYP2D6; 5 min): 0.79 %ID/g | Biological distribution, Gallbladder (CYP2D6; 5 min): 1.59 %ID/g | Biological distribution, Heart (CYP2D6; 5 min): 5.19 %ID/g | Biological distribution, Kidney (CYP2D6; 5 min): 19.94 %ID/g | Biological distribution, Large intestines (CYP2D6; 5 min): 1.12 %ID/organ | Biological distribution, Liver (CYP2D6; 5 min): 7.19 %ID/g | Biological distribution, Lung (CYP2D6; 5 min): 22.13 %ID/g | Biological distribution, Pancreas (CYP2D6; 5 min): 6.02 %ID/g | Biological distribution, Small intestines (CYP2D6; 5 min): 7.24 %ID/organ | Biological distribution, Spleen (CYP2D6; 5 min): 4.62 %ID/g | Biological distribution, Stomach (CYP2D6; 5 min): 1.77 %ID/organ | Biological distribution, Thyroid (CYP2D6; 5 min): 0.05 %ID/organ | Biological distribution, Urine (CYP2D6; 5 min): 0.33 %ID/organ | Biological distribution, Blood (CYP2D6; 15 min): 1.59 %ID/g | Biological distribution, Brain (CYP2D6; 15 min): 0.82 %ID/g | Biological distribution, Gallbladder (CYP2D6; 15 min): 10.66 %ID/g | Biological distribution, Heart (CYP2D6; 15 min): 2.87 %ID/g | Biological distribution, Kidney (CYP2D6; 15 min): 17.13 %ID/g | Biological distribution, Large intestines (CYP2D6; 15 min): 0.93 %ID/organ | Biological distribution, Liver (CYP2D6; 15 min): 5.56 %ID/g | Biological distribution, Lung (CYP2D6; 15 min): 11.96 %ID/g | Biological distribution, Pancreas (CYP2D6; 15 min): 5.71 %ID/g | Biological distribution, Small intestines (CYP2D6; 15 min): 5.64 %ID/organ | Biological distribution, Spleen (CYP2D6; 15 min): 4.97 %ID/g | Biological distribution, Stomach (CYP2D6; 15 min): 2.40 %ID/organ | Biological distribution, Thyroid (CYP2D6; 15 min): 0.04 %ID/organ | Biological distribution, Urine (CYP2D6; 15 min): 6.18 %ID/organ | Biological distribution, Blood (CYP2D6; 30 min): 1.12 %ID/g | Biological distribution, Brain (CYP2D6; 30 min): 0.71 %ID/g | Biological distribution, Gallbladder (CYP2D6; 30 min): 21.66 %ID/g | Biological distribution, Heart (CYP2D6; 30 min): 1.47 %ID/g | Biological distribution, Kidney (CYP2D6; 30 min): 15.90 %ID/g | Biological distribution, Large intestines (CYP2D6; 30 min): 0.74 %ID/organ | Biological distribution, Liver (CYP2D6; 30 min): 5.08 %ID/g | Biological distribution, Lung (CYP2D6; 30 min): 7.77 %ID/g | Biological distribution, Pancreas (CYP2D6; 30 min): 3.94 %ID/g | Biological distribution, Small intestines (CYP2D6; 30 min): 10.30 %ID/organ | Biological distribution, Spleen (CYP2D6; 30 min): 2.88 %ID/g | Biological distribution, Stomach (CYP2D6; 30 min): 3.20 %ID/organ | Biological distribution, Thyroid (CYP2D6; 30 min): 0.05 %ID/organ | Biological distribution, Urine (CYP2D6; 30 min): 22.96 %ID/organ | Biological distribution, Blood (CYP2D6; 60 min): 0.67 %ID/g | Biological distribution, Brain (CYP2D6; 60 min): 0.58 %ID/g | Biological distribution, Gallbladder (CYP2D6; 60 min): 26.70 %ID/g | Biological distribution, Heart (CYP2D6; 60 min): 0.62 %ID/g | Biological distribution, Kidney (CYP2D6; 60 min): 8.33 %ID/g | Biological distribution, Large intestines (CYP2D6; 60 min): 0.67 %ID/organ | Biological distribution, Liver (CYP2D6; 60 min): 1.75 %ID/g | Biological distribution, Lung (CYP2D6; 60 min): 3.15 %ID/g | Biological distribution, Pancreas (CYP2D6; 60 min): 2.51 %ID/g | Biological distribution, Small intestines (CYP2D6; 60 min): 10.85 %ID/organ | Biological distribution, Spleen (CYP2D6; 60 min): 1.46 %ID/g | Biological distribution, Stomach (CYP2D6; 60 min): 2.20 %ID/organ | Biological distribution, Thyroid (CYP2D6; 60 min): 0.10 %ID/organ | Biological distribution, Urine (CYP2D6; 60 min): 33.92 %ID/organ
